Experimental data as given in publication PMC4447534 (ChemMedChem, 2015).
Where “and” joins values, the source holds several entries; their conditions need not be identical. Identical values can stand only once. Like-named read-outs stand apart in the source and are kept apart here.

What was measured:
Vero cells = test: Cytotoxicity for Vero cells; format: cell-based; conditions: one experiment in triplicate, means ± S.D.
T. cruzi (amastigotes) [1] = test: microbe, parasite or virus in culture; conditions: Trypanosoma cruzi, read-out: T. cruzi ED50
T. cruzi (amastigotes) [2] = conditions: for SI (T. cruzi): selectivity index, Vero cells versus T. cruzi; for T. cruzi ED50: intracellular amastigotes, one experiment in triplicate, means ± S.D.
[3] = tested on: amastigotes of Trypanosoma cruzi; conditions: cited from earlier work
[4] = tested on: murine models of Chagas disease; conditions: ketoconazole as positive control; cited from earlier work
[5] = selectivity index, Vero cells versus T. gondii

N#CSCCOc1cccc(Oc2ccccc2Cl)c1 [Compound 46, 3-(2-Chlorophenoxy)phenoxyethyl Thiocyanate]
Cytotoxicity ED50 (Vero cells): > 50.0 µM
IC50 (T. cruzi (amastigotes) [1]): 11.9 ± 0.38 µM
SI (T. gondii) (T. gondii (tachyzoites); [5]): 23.4

COc1cccc(Oc2cccc(OCCSC#N)c2)c1 [Compound 50, 3-(3-Methoxyphenoxy)-phenoxyethyl Thiocyanate]
SI (T. cruzi) (T. cruzi (amastigotes) [2]): 11.0
Cytotoxicity ED50 (Vero cells): 96.2 ± 37.5 µM
IC50 (T. cruzi (amastigotes) [1]): 8.75 ± 0.33 µM
SI (T. gondii) (T. gondii (tachyzoites); [5]): 23.9

N#CSCCOc1cccc(Oc2ccncc2)c1 [Compound 62, 3-(4-Pyridyloxy)phenoxyethyl Thiocyanate]
T. cruzi ED50 (T. cruzi (amastigotes) [2]): free of antiparasitic activity
Cytotoxicity ED50 (Vero cells): > 200.0 µM
IC50 (T. cruzi (amastigotes) [1]): > 10 µM

[N-]=[N+]=NCCOc1ccc(Oc2ccccc2)cc1 [Compound 64, 4-Phenoxyphenoxyethyl Azide]
Cytotoxicity ED50 (Vero cells): > 200.0 µM
IC50 (T. cruzi (amastigotes) [1]): > 10 µM

α-Naphtyloxyphenylethyl Thiocyanate [Compound 24]
SI (T. cruzi) (T. cruzi (amastigotes) [2]): > 7
T. gondii ED50 (T. gondii (tachyzoites)): 2.9 µM and 2.87 ± 0.19 µM
SI (T. gondii) (T. gondii (tachyzoites); [5]): 24.4

N#CSCCOc1ccc(Br)cc1Br [Compound 68, 2,4-Dibromophenoxyethyl Thiocyanate]
T. cruzi ED50 (T. cruzi (amastigotes) [2]): inactive
Cytotoxicity ED50 (Vero cells): > 50.0 µM
IC50 (T. cruzi (amastigotes) [1]): > 20 µM

COc1ccccc1Oc1cccc(OCCSC#N)c1 [Compound 49, 3-(2-Methoxyphenoxy)phenoxyethyl Thiocyanate]
Cytotoxicity ED50 (Vero cells): 115.7 ± 39.8 µM
IC50 (T. cruzi (amastigotes) [1]): 11.7 ± 2.52 µM
SI (T. gondii) (T. gondii (tachyzoites); [5]): 41.5

N#CSCCOc1ccc(Oc2cccc(C(F)(F)F)c2)cc1 [Compound 15, 4-[(3-Trifluoro)phenoxy]phenoxyethyl Thiocyanate]
T. cruzi ED50 (T. cruzi (amastigotes) [2]): 10.0 µM and 10.0 ± 2.5 µM
SI (T. cruzi) (T. cruzi (amastigotes) [2]): > 5.0
Cytotoxicity ED50 (Vero cells): > 50.0 µM
SI (T. gondii) (T. gondii (tachyzoites)): > 31.1
T. gondii ED50 (T. gondii (tachyzoites)): 1.6 µM and 1.66 ± 0.35 µM

N#CSCCOc1cccnc1 [Compound 72, 3-Pyridyloxyethyl Thiocyanate]
T. cruzi ED50 (T. cruzi (amastigotes) [2]): devoid of antiparasitic activity
T. gondii ED50 (T. gondii (tachyzoites); tachyzoites, one experiment in triplicate, means ± S.D.): devoid of antiparasitic activity

N#CSCCOc1ccc(Oc2ccc(C(F)(F)F)cc2)cc1 [Compound 16, 4-[(4-Trifluoro)phenoxy]phenoxyethyl Thiocyanate]
T. cruzi ED50 (T. cruzi (amastigotes) [2]): 9.2 µM and 9.2 ± 1.8 µM
Cytotoxicity ED50 (Vero cells): > 50.0 µM
SI (T. gondii) (T. gondii (tachyzoites)): > 26.7
T. gondii ED50 (T. gondii (tachyzoites)): 1.9 µM and 1.86 ± 0.38 µM

Cc1ccc(S(=O)(=O)OCCOc2cccnc2)cc1 [Compound 71, 3-Pyridyloxyethyl 4-Toluenesulfonate]
Cytotoxicity ED50 (Vero cells): > 200 µM
IC50 (T. cruzi (amastigotes) [1]): > 10 µM

N#CSCCOc1cccc(Oc2ccc(Cl)cc2)c1 [Compound 48, 3-(4-Chlorophenoxy)phenoxyethyl Thiocyanate]
T. cruzi ED50 (T. cruzi (amastigotes) [2]): very low micromolar range
SI (T. cruzi) (T. cruzi (amastigotes) [2]): 15.7
Cytotoxicity ED50 (Vero cells): 98.4 ± 5.8 µM
IC50 (T. cruzi (amastigotes) [1]): 6.27 ± 0.75 µM

O=C(Cn1ccnc1[N+](=O)[O-])NCc1ccccc1 [Benznidazole, reference compound]
IC50 (T. cruzi (amastigotes) [1]): 1.92 ± 0.55 µM

N#CSCCOc1ccc(Oc2ccc3ccccc3c2)cc1 [Compound 20, β-Naphtyloxyphenoxyethyl Thiocyanate]
Cytotoxicity ED50 (Vero cells): 104.7 ± 7.8 µM
T. gondii ED50 (T. gondii (tachyzoites)): 2.3 µM and 2.25 ± 0.84 µM
SI (T. gondii) (T. gondii (tachyzoites); [5]): 46.5

N#CSCCOc1cccc(Oc2ccccn2)c1 [Compound 60, 3-(2-Pyridyloxy)phenoxyethyl Thiocyanate]
T. cruzi ED50 (T. cruzi (amastigotes) [2]): free of antiparasitic activity
Cytotoxicity ED50 (Vero cells): > 200.0 µM
IC50 (T. cruzi (amastigotes) [1]): > 10 µM

N#CSCCOc1ccc(Oc2ccccn2)cc1 [Compound 29, 4-(Pyridin-2-yloxy)phenoxyethyl Thiocyante]
Cytotoxicity ED50 (Vero cells): > 200.0 µM

N#CSCCOc1cccc(Oc2cccnc2)c1 [Compound 61, 3-(3-Pyridyn-3-yloxy)phenoxyethyl Thiocyanate]
SI (T. cruzi) (T. cruzi (amastigotes) [2]): 16.6
Cytotoxicity ED50 (Vero cells): 124.0 ± 12.0 µM
SI (T. gondii) (T. gondii (tachyzoites)): 33.5

N#CSCCOc1ccc(Oc2ccccc2)cc1 [WC-9, 4-phenoxyphenoxyethyl thiocyanate, reference compound]
ED50 against amastigotes of Trypanosoma cruzi [3]: low nanomolar range
effect on parasitemia [4]: able to impair parasitemia
Cytotoxicity ED50 (Vero cells): 82.6 ± 7.3 µM
IC50 (T. cruzi (amastigotes) [1]): 5 ± 1.1 µM

N#CSCCOc1cccc(Oc2cccc(Cl)c2)c1 [Compound 47, 3-(3-Chlorophenoxy)phenoxyethyl Thiocyanate]
T. cruzi ED50 (T. cruzi (amastigotes) [2]): vanishing biological activity
Cytotoxicity ED50 (Vero cells): > 200.0 µM
IC50 (T. cruzi (amastigotes) [1]): > 20 µM
